“And” between values parts separate entries of the source, which are not always exact repeats. Equal values may be shown once. Toxic doses and inconclusive results are not listed. Rule for the calls: active = survival T/C of 150% or more; inactive = T/C below 125% in these data.
System: P388 leukemia ip, CD2F1 mice, survival T/C
Assay: NCI In Vivo Anticancer Drug Screen. Data for tumor model P388 Leukemia (intraperitoneal) in CD2F1 (CDF1) mice
Details: endpoint: median survival time, higher = longer survival
Procedure, shortened: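 Mice carrying the transplanted tumor received test compound or vehicle. Survival was recorded in each group, and the value is the treated-group measurement divided by that of the vehicle-treated control group.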

[1] = dose: 25.0 mg/kg/injection, schedule: Q01DX009 (ip), vehicle: saline
[2] = dose: 50.0 mg/kg/injection, schedule: Q01DX009 (ip), vehicle: saline
[3] = dose: 100.0 mg/kg/injection, schedule: Q01DX009 (ip), vehicle: saline
[4] = dose: 200.0 mg/kg/injection, schedule: Q01DX009 (ip), vehicle: saline
[5] = dose: 100.0 mg/kg/injection, schedule: Q01DX009 (ip), vehicle: saline with Tween-80
[6] = dose: 200.0 mg/kg/injection, schedule: Q01DX009 (ip), vehicle: saline with Tween-80
[7] = dose: 100.0 mg/kg/injection, schedule: Q04DX002 (ip), vehicle: saline with Tween-80
[8] = dose: 200.0 mg/kg/injection, schedule: Q04DX002 (ip), vehicle: saline with Tween-80
[9] = dose: 400.0 mg/kg/injection, schedule: Q04DX002 (ip), vehicle: saline with Tween-80
[10] = dose: 100.0 mg/kg/injection, schedule: Q01DX001 (ip), vehicle: Klucel (hydroxypropylcellulose) (HPC)
[11] = dose: 60.0 mg/kg/injection, schedule: Q01DX005 (ip), vehicle: saline with Tween-80
[12] = dose: 120.0 mg/kg/injection, schedule: Q01DX005 (ip), vehicle: saline with Tween-80
[13] = dose: 240.0 mg/kg/injection, schedule: Q01DX005 (ip), vehicle: saline with Tween-80
[14] = dose: 50.0 mg/kg/injection, schedule: Q01DX005 (ip), vehicle: saline with Tween-80
[15] = dose: 100.0 mg/kg/injection, schedule: Q01DX005 (ip), vehicle: saline with Tween-80
[16] = dose: 200.0 mg/kg/injection, schedule: Q01DX005 (ip), vehicle: saline with Tween-80
[17] = dose: 25.0 mg/kg/injection, schedule: Q01DX009 (ip), vehicle: Klucel (hydroxypropylcellulose) (HPC)
[18] = dose: 50.0 mg/kg/injection, schedule: Q01DX009 (ip), vehicle: Klucel (hydroxypropylcellulose) (HPC)
[19] = dose: 100.0 mg/kg/injection, schedule: Q01DX009 (ip), vehicle: Klucel (hydroxypropylcellulose) (HPC)
[20] = dose: 200.0 mg/kg/injection, schedule: Q01DX009 (ip), vehicle: Klucel (hydroxypropylcellulose) (HPC)
[21] = dose: 50.0 mg/kg/injection, schedule: Q01DX009 (ip), vehicle: saline with Tween-80
[22] = dose: 50.0 mg/kg/injection, schedule: Q01DX005 (ip), vehicle: Klucel (hydroxypropylcellulose) (HPC)
[23] = dose: 100.0 mg/kg/injection, schedule: Q01DX005 (ip), vehicle: Klucel (hydroxypropylcellulose) (HPC)
[24] = dose: 200.0 mg/kg/injection, schedule: Q01DX005 (ip), vehicle: Klucel (hydroxypropylcellulose) (HPC)

Measured: T/C

N=C(N)SCCCN
inactive: [1] 95 % of control | [2] 103 % of control | [3] 112 % of control | [4] 112 % of control

CSc1cccc2c(NCCCCCCCCNc3c4ccccc4nc4c(SC)cccc34)c3ccccc3nc12
inactive: dose: 0.32 mg/kg/injection, schedule: Q01DX009 (ip), vehicle: other 101 % of control | dose: 0.63 mg/kg/injection, schedule: Q01DX009 (ip), vehicle: other 104 % of control | dose: 1.25 mg/kg/injection, schedule: Q01DX009 (ip), vehicle: other 113 % of control | dose: 2.5 mg/kg/injection, schedule: Q01DX009 (ip), vehicle: other 113 % of control | dose: 5.0 mg/kg/injection, schedule: Q01DX009 (ip), vehicle: other 109 % of control | dose: 10.0 mg/kg/injection, schedule: Q01DX009 (ip), vehicle: other 111 % of control

O=C(O)c1ccc2cc3ccccc3cc2c1
inactive: [5] 99 % of control | [6] 91 % of control

CC1(C)CC(NC(=O)c2cc([N+](=O)[O-])c(S(=O)(=O)O)c([N+](=O)[O-])c2)CC(C)(C)N1O
inactive: [7] 110 % of control | [8] 100 % of control | [9] 107 % of control

COC(=O)CC(C(=O)OC)C(C(=O)OC)C(C(=O)OC)C(CC(=O)OC)C(=O)OC (stereo not given)
inactive: [7] 98 % of control | [8] 104 % of control | [9] 102 % of control

Nc1ccccc1/C=C/c1ccnc2ccccc12
inactive: dose: 12.5 mg/kg/injection, schedule: Q01DX001 (ip), vehicle: Klucel (hydroxypropylcellulose) (HPC) 101 % of control and 96 % of control | dose: 25.0 mg/kg/injection, schedule: Q01DX001 (ip), vehicle: Klucel (hydroxypropylcellulose) (HPC) 100 % of control and 89 % of control | dose: 50.0 mg/kg/injection, schedule: Q01DX001 (ip), vehicle: Klucel (hydroxypropylcellulose) (HPC) 91 % of control and 97 % of control | [10] 87 % of control and 94 % of control

CC1=C(CC/C(C)=C/CC[C@@]2(C)CC[C@H](C(C)C(=O)O)OO2)C(C)(C)CCC1 (stereo not given in full)
inactive: dose: 4.38 mg/kg/injection, schedule: Q01DX005 (ip), vehicle: saline + Tween-80 + alcohol 97 % of control | dose: 8.75 mg/kg/injection, schedule: Q01DX005 (ip), vehicle: saline + Tween-80 + alcohol 102 % of control | dose: 17.5 mg/kg/injection, schedule: Q01DX005 (ip), vehicle: saline + Tween-80 + alcohol 94 % of control | dose: 35.0 mg/kg/injection, schedule: Q01DX005 (ip), vehicle: saline + Tween-80 + alcohol 94 % of control

Cn1c(=O)c2[nH]c(C(C)(C)O)nc2n(C)c1=O
inactive: [11] 101 % of control | [12] 104 % of control | [13] 101 % of control

Cc1cc2[nH]c(Cl)c(/C=N/NC(N)=S)c2cc1O
inactive: [10] 99 % of control | dose: 200.0 mg/kg/injection, schedule: Q01DX001 (ip), vehicle: Klucel (hydroxypropylcellulose) (HPC) 99 % of control | dose: 400.0 mg/kg/injection, schedule: Q01DX001 (ip), vehicle: Klucel (hydroxypropylcellulose) (HPC) 97 % of control

Oc1ccc(C2Oc3ccccc3C=C2c2ccccc2)cc1 (stereo not given)
inactive: [14] 94 % of control | [15] 89 % of control | [16] 96 % of control

COc1ccc(C(=O)/C=C/c2cc3c(cc2OCc2ccccc2)OCO3)c(OCc2ccccc2)c1
inactive: dose: 75.0 mg/kg/injection, schedule: Q04DX003 (ip), vehicle: Klucel (hydroxypropylcellulose) (HPC) 99 % of control | dose: 150.0 mg/kg/injection, schedule: Q04DX003 (ip), vehicle: Klucel (hydroxypropylcellulose) (HPC) 94 % of control | dose: 300.0 mg/kg/injection, schedule: Q04DX003 (ip), vehicle: Klucel (hydroxypropylcellulose) (HPC) 90 % of control

CCOC(=O)c1c(C)cc2ccccn12
inactive: [11] 103 % of control | [12] 103 % of control | [13] 105 % of control

CN1C(C)(C)CC(C)(O)CC1(C)C
inactive: dose: 50.0 mg/kg/injection, schedule: Q01DX005 (ip), vehicle: saline 91 % of control | dose: 100.0 mg/kg/injection, schedule: Q01DX005 (ip), vehicle: saline 94 % of control | dose: 200.0 mg/kg/injection, schedule: Q01DX005 (ip), vehicle: saline 106 % of control

Nc1nncc(-c2ccccc2)n1
inactive: [17] 97 % of control | [18] 97 % of control | [19] 96 % of control | [20] 110 % of control

Cc1ccc(-c2nc3ccccc3c(=O)n2C(C)C)cc1
inactive: [21] 100 % of control | [5] 98 % of control | [6] 87 % of control

Cc1ccc(NC(=O)Nc2cccnc2)cc1NC(=O)Nc1cccnc1
inactive: [18] 102 % of control | [19] 110 % of control | [20] 100 % of control

Brc1nsc(SSc2nc(Br)ns2)n1
inactive: [22] 103 % of control | [23] 103 % of control | [24] 102 % of control

CC1(C)OP(=O)(O)C=C1[Se]c1ccccc1
inactive: [22] 100 % of control | [23] 102 % of control | [24] 94 % of control

OCC1OC(OC2C(CO)OC(S)C(O)C2O)C(O)C(O)C1O (stereo not given)
inactive: [21] 98 % of control | [5] 92 % of control | [6] 92 % of control

O=C(NNC(=O)c1cccnc1)Nc1cccc(Cl)c1Cl
inactive: dose: 12.5 mg/kg/injection, schedule: Q01DX009 (ip), vehicle: saline with Tween-80 104 % of control | dose: 25.0 mg/kg/injection, schedule: Q01DX009 (ip), vehicle: saline with Tween-80 100 % of control | [21] 95 % of control

CCCNC(=O)c1ccccc1C(=O)NC1(C(=O)NCCC)CCCC1
inactive: [14] 97 % of control | [15] 96 % of control | [16] 96 % of control

Cc1cccc(N2CCN(S(C)(=O)=O)CC2)c1
inactive: dose: 100.0 mg/kg/injection, schedule: Q04DX003 (ip), vehicle: saline with Tween-80 101 % of control | dose: 200.0 mg/kg/injection, schedule: Q04DX003 (ip), vehicle: saline with Tween-80 102 % of control | dose: 400.0 mg/kg/injection, schedule: Q04DX003 (ip), vehicle: saline with Tween-80 110 % of control

Cc1cc(C)nc(NS(=O)(=O)c2ccc(N=Cc3c4ccccc4nc4cc(Cl)ccc34)cc2)n1
inactive: [14] 93 % of control | [15] 93 % of control | [16] 93 % of control

O=S1(=O)CCC2C1C1(Cl)C(Cl)=C(Cl)C2(Cl)C1(Cl)Cl (stereo not given)
inactive: dose: 6.25 mg/kg/injection, schedule: Q01DX009 (ip), vehicle: saline 100 % of control | dose: 12.5 mg/kg/injection, schedule: Q01DX009 (ip), vehicle: saline 100 % of control | [1] 100 % of control

O=C(COc1ccc(Cl)cc1Cl)N1CCNC1=S
inactive: [18] 100 % of control | [19] 103 % of control | [20] 100 % of control

O=C(c1cccs1)C1NO[N+]([O-])=C1c1cccs1 (stereo not given)
inactive: dose: 6.25 mg/kg/injection, schedule: Q01DX005 (ip), vehicle: saline with Tween-80 100 % of control | dose: 12.5 mg/kg/injection, schedule: Q01DX005 (ip), vehicle: saline with Tween-80 106 % of control | dose: 25.0 mg/kg/injection, schedule: Q01DX005 (ip), vehicle: saline with Tween-80 115 % of control

COc1cc2c(NCCCCCCO[N+](=O)[O-])ncnc2c(OC)c1OC
inactive: [22] 100 % of control | [23] 103 % of control | [24] 100 % of control

CCOC(=O)CNc1sc(=S)[nH]c1C(=O)OCC
inactive: [22] 100 % of control | [23] 91 % of control | [24] 92 % of control

CSc1nc(-c2ccccc2)cc(=O)[nH]1
inactive: [17] 106 % of control | [18] 118 % of control | [2] 102 % of control | [19] 112 % of control | [3] 108 % of control | [20] 94 % of control | [4] 102 % of control

CCOC(=O)N1C=CC(c2ccccc2)=CC2ON=C(c3c(C)cc(C)cc3C)N21 (stereo not given)
inactive: [2] 106 % of control | [3] 108 % of control | [4] 99 % of control
